Laboratory results from US8987522B2, “Differentiation inducer to brown-like adipocyte of white adipocyte” (Uha Mikakuto Co., Ltd., priority 2012, dated 2015).

Tests used:
[1] = test system: 3T3-L1 cells (mouse-derived preadipocytes); assay: Expression of indicator genes (Cidea, Cox7a1, UCP1) of differentiation induction to brown-like adipocytes, real-time RT-PCR; type: cell-based; settings: for differentiation induction action to brown-like adipocytes from white adipocytes: 3T3-L1, overall conclusion
Experimental: (§1) In order to evaluate the differentiation induction action to brown-like adipocytes of white adipocytes, the evaluation was carried out using 3T3-L1 cells (mouse-derived preadipocytes). The 3T3-L1 preadipocytes are usually differentiated to white adipocytes through a differentiation induction process to be matured. However, by the differentiation induction to brown-like adipocytes, an expression of Cidea gene, an increase in the expression amount of Cox7a1 gene expressed in mitochondria, an increase in the expression amount of cytochrome c oxidase protein specifically expressed in mitochondria, and an expression enhancement of UCP1 gene, which are hardly observed in white adipocytes, are observed. Then, the differentiation induction to brown-like adipocytes of white adipocytes was confirmed based on the expression amount of each gene of Cidea, Cox7a1, and UCP1.
For samples, two substances of resveratrol and UHA1028 were used. Since the action of the differentiation induction to brown-like adipocytes was not observed in sinapic acid, sinapic acid was not used as a comparison target. Each sample was dissolved in dimethylsulfoxide (DMSO, manufactured by Wako Pure Chemical Industries, Ltd.) with a concentration of 4 mM and 2 mM to be used for a test.
Culture was carried out using “Dulbecco's modified Eagle medium” (DMEM, Product name, manufactured by Sigma-Aldrich Corporation) containing 10% “Foetal Bovine Serum” (FBS, manufactured by Biological industries), 1% “Antibiotic-Antimycotic”, and GIBCO (manufactured by Life Technology Corporation). Adipocytes to be used for the test were prepared in accordance with a usual method.
The test was carried out as follows. 2 mL of 3T3-L1 cells were sowed with a concentration of 5×10^4 cells/mL in a 6 well dish for cell culture (manufactured by Japan Becton, Dickinson and Company), and then cultured under the conditions of 37° C. and 5% CO2 for 24 hours. 24 hours later, the DMEM culture medium was exchanged to a DMEM culture medium which was adjusted in such a manner that the final concentration of the UHA1028 was 10 μM or the final concentration of the resveratrol was 20 μM, culture was continued in such a manner that the cells were confluent to 100%, and then culture was further carried out for 48 hours. Next, the culture medium was exchanged to a culture medium in which 10 μL of each sample (Final concentration of 20 μM and 10 μM) was added to 2 mL DMEM for differentiation, to which 1% of insulin, 0.5% of dexamethasone, and 0.1% of isobutylmethylxanthine were added, attached to “AdipoInducer Reagent” (Product name, manufactured by Takara Bio, Inc.), and then differentiation induction was carried out under the conditions of 37° C. and 5% CO2 for 48 hours. After the differentiation induction for 48 hours, the culture medium was exchanged to 2 mL of DMEM for maintaining culture to which 1% of insulin was added, and then culture was further carried out for one week for maturing adipocytes. One to which 0.5% of only DMSO which is a solvent was added was used as a control.
After the end of the culture, the total amount RNA was extracted from the cells using an RNA extraction kit (Product name: NucleoSpin (Registered Trademark) RNA II, manufactured by Takara Bio, Inc.) and refined. […]

[2] = test system: 3T3-L1 cells (mouse-derived preadipocytes); assay: Expression of indicator protein CO1 (mitochondria marker), Western blot; type: cell-based
Experimental: as §1, with “an” for “an expression of Cidea gene, an increase in the expression amount of Cox7a1 gene expressed in mitochondria, an”, “mitochondria is” for “mitochondria, and an expression enhancement of UCP1 gene, which are hardly observed in white adipocytes, are”, “the CO1 protein.” for “each gene of Cidea, Cox7a1, and UCP1.”
Culture of cells was carried out by the same method as that of Example 2 using the same samples and cells as those in Example 2. […] After the extraction, the protein concentration was measured using a BCA protein assay kit (manufactured by Thermo Fisher Scientific K.K.). […]
After the electrophoresis, the proteins are transferred to PVDF membranes (manufactured by EMD Millipore) by a semidry blotting device “TRANS-BLOT S-D SEMI-DRY TRANSFER CELL” (Product name, manufactured by Bio-Rad Laboratories Inc.), and then blotting was carried out by Immunoblock (manufactured by DS Pharma Biomedical Co., Ltd.). […] The band strength of the detected band was calculated using an image analysis software “Image J”.

mature adipocytes [3] = settings: Japanese Patent Application No. 2011-145331; cited from earlier work
preadipocytes = settings: Japanese Patent Application No. 2012-240364; cited from earlier work
[4] = test system: human vascular endothelial cells; settings: Japanese Patent Application No. 2011-118367; cited from earlier work
mature adipocytes [5] = settings: Japanese Patent Application No. 2011-186054; cited from earlier work
[6] = 3T3-L1, UHA1028 10 μM, as compared with resveratrol 20 μM, FIG. 1

Compound	differentiation induction action to brown-like adipocytes from white adipocytes [1]	expression amount of the Cox7a1 (mitochondria marker gene) [1, 6]	expression amount of the UCP1 gene [1, 6]	gene expression amount of the Cidea (marker gene of the brown-like adipocytes) [1, 6]	mitochondria marker protein (CO1) expressed in mature adipocytes ([2]; 3T3-L1, Western blot band strength, as compared with DMSO and resveratrol, FIG. 2)	amount of mitochondria in the cells ([2]; 3T3-L1, results of Examples 2 and 3, as compared with resveratrol)	adiponectin production promotion action (mature adipocytes [3])	differential inhibition action to mature adipocytes of preadipocytes (preadipocytes)	sirtuin expression promotion action [4]	lipoprotein lipase promotion action (mature adipocytes [5])
COc1cc(/C=C/C(=O)O)cc(OC)c1O [sinapic acid, reference compound]	not observed									
COc1cc(C(C)c2c(O)cc(/C=C/c3ccc(O)cc3)cc2O)cc(OC)c1O (centres unmarked) [UHA1028]	notably induced	significantly increased	significantly increased	significantly increased	significantly large	significantly increased	adiponectin production promotion action	differential inhibition action	sirtuin expression promotion action	lipoprotein lipase promotion action
